Laboratory results as given in ChEMBL document CHEMBL1150645, “A new secosterol from the Indonesian octocoral Pachyclavularia violacea” (J Nat Prod, 2002).

Key:
Assay type in all cases: functional, cell-based
HT-29 = assay: Cytotoxicity against human HT-29 cells
P388 = assay: Cytotoxicity against mouse P388 cells
A549 = assay: Cytotoxicity against human A549 cells
SK-MEL-28 = assay: Cytotoxicity against human SK-MEL-28 cells

Measured: IC50

CC(=O)O[C@@H]1C/C=C(/C)C[C@H]2O[C@H]3[C@@H]4[C@H]2C(C)=CC(=O)[C@@H]4[C@@H](C)CO[C@@]13C [PACHYCLAVULARIAENONE B]
> 1 µg/mL: all assays above

CC(C)[C@@H](C)CC[C@@H](C)[C@H]1CC[C@@H]([C@@H]2C[C@H]3O[C@]34C[C@@H](O)CC[C@]4(C)C2=O)[C@]1(C)CCO [SECOSTEROL]
> 1 µg/mL: all assays above
